Legend:
[1] = tested on: Mycobacterium tuberculosis Erdman (pMV306hsp+LuxG13); assay: log2 fractional inhibitory concentration at 50% inhibition (log2 FIC); higher = more antagonistic
Procedure: (§1)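 DiaMOND pairwise dose responses of an equipotent two-drug mixture (1.5-fold, 10-dose series) against autoluminescent M. tuberculosis Erdman in 384-well plates. Growth inhibition was read by OD600 (luminescence for dormancy) in seven media at a constant and a terminal time point; metrics are means of at least biological duplicates. Einf and AUC25 higher = more potent; GRinf lower = more potent; log2FIC negative = synergy.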

[2] = tested on: Mycobacterium tuberculosis Erdman (pMV306hsp+LuxG13); assay: GRinf, normalised growth-rate inhibition at infinite dose (GR value (unitless, negative = killing)); higher = less potent
Procedure: as §1

[3] = tested on: Mycobacterium tuberculosis Erdman (pMV306hsp+LuxG13); assay: log2 fractional inhibitory concentration at 90% inhibition (log2 FIC); higher = more antagonistic
Procedure: as §1

[4] = tested on: Mycobacterium tuberculosis Erdman (pMV306hsp+LuxG13); assay: AUC25, normalised area under the dose-response curve up to IC25 (normalised AUC (unitless)); higher = more potent
Procedure: as §1

[5] = tested on: Mycobacterium tuberculosis Erdman (pMV306hsp+LuxG13); assay: Einf, effect of the drug pair at infinite dose (maximum growth inhibition) (fraction inhibition (0-1)); higher = more potent; extreme values may be limits of the assay
Procedure: as §1

CO[C@H]1/C=C/O[C@@]2(C)Oc3c(C)c(O)c4c(O)c(c(/C=N/N5CCN(C)CC5)c(O)c4c3C2=O)NC(=O)/C(C)=C\C=C\[C@H](C)[C@H](O)[C@@H](C)[C@@H](O)[C@@H](C)[C@H](OC(C)=O)[C@@H]1C [rifampicin] + CC(C)=CCC/C(C)=C/CNCCNC1C2CC3CC(C2)CC1C3 [SQ109]
Conditions	AUC25, [4]	Einf, [5]	GRinf, [2]	log2 fractional inhibitory concentration, [1]	log2 fractional inhibitory concentration, [3]
growth medium: butyrate 5 mM, time point: constant time point	0.0902	0.914	-0.0141	0.188	–
growth medium: butyrate 5 mM, time point: terminal time point	0.0763	0.959	-0.032	0.0743	-0.456
growth medium: cholesterol 0.2 mM (cholesterol-high), time point: constant time point	0.03	0.992	-0.905	0.231	-0.46
growth medium: cholesterol 0.2 mM (cholesterol-high), time point: terminal time point	0.0325	0.999	-0.83	0.286	-0.383
growth medium: standard 7H9 OADC glycerol, time point: constant = terminal time point (4.2 d)	0.0536	0.909	0.0752	0.0639	–
growth medium: valerate 0.1%, time point: constant time point	0.0301	0.956	0.0222	-0.112	-0.583
growth medium: valerate 0.1%, time point: terminal time point	0.0271	0.962	0.0133	-0.128	-0.625

growth medium: hypoxic dormancy (butyrate + nitrate), then recovery
Conditions	AUC25, [4]	Einf, [5]	GRinf, [2]	log2 fractional inhibitory concentration, [1]	log2 fractional inhibitory concentration, [3]
time point: constant time point	0.0556	0.984	-0.371	-1.51	-1.97
time point: terminal time point	0.0342	0.964	0.12	-0.863	-1.05

CO[C@H]1/C=C/O[C@@]2(C)Oc3c(C)c(O)c4c(O)c(c(/C=N/N5CCN(C6CCCC6)CC5)c(O)c4c3C2=O)NC(=O)/C(C)=C\C=C\[C@H](C)[C@H](O)[C@@H](C)[C@@H](O)[C@@H](C)[C@H](OC(C)=O)[C@@H]1C [rifapentine] + CC(=O)NC[C@H]1CN(c2ccc(N3CCSCC3)c(F)c2)C(=O)O1 [sutezolid]
Conditions	AUC25, [4]	Einf, [5]	GRinf, [2]	log2 fractional inhibitory concentration, [1]	log2 fractional inhibitory concentration, [3]
growth medium: acidic pH 5.7, glycerol, time point: constant time point	0.0889	0.884	-0.224	-0.201	–
growth medium: acidic pH 5.7, glycerol, time point: terminal time point	0.0808	0.987	-0.263	0.0996	-0.527
growth medium: butyrate 5 mM, time point: constant time point	0.0809	0.896	0.0472	0.129	–
growth medium: butyrate 5 mM, time point: terminal time point	0.0542	0.942	0.0324	0.16	-0.276
growth medium: cholesterol 0.05 mM, time point: constant time point	0.0962	1	-1	-0.454	0.00059
growth medium: cholesterol 0.05 mM, time point: terminal time point	0.135	1	-1	-1.5	-0.142
growth medium: cholesterol 0.2 mM (cholesterol-high), time point: constant time point	0.0718	1	-1	-0.331	-0.285
growth medium: cholesterol 0.2 mM (cholesterol-high), time point: terminal time point	0.0787	1	-0.769	-0.38	-0.276
growth medium: standard 7H9 OADC glycerol, time point: constant = terminal time point (4.2 d)	0.0417	0.983	-0.0675	-0.00234	-0.509
growth medium: valerate 0.1%, time point: constant time point	0.107	0.877	-0.107	-0.128	–
growth medium: valerate 0.1%, time point: terminal time point	0.0657	0.976	-0.0835	0.176	0.234

growth medium: hypoxic dormancy (butyrate + nitrate), then recovery
Conditions	AUC25, [4]	Einf, [5]	GRinf, [2]	log2 fractional inhibitory concentration, [1]	log2 fractional inhibitory concentration, [3]
time point: constant time point	0.0482	0.974	0.21	-0.541	-0.514
time point: terminal time point	0.0473	0.963	0.209	0.397	0.244

Source: the supplement of paper PMC9512659
